In paper PMC4944145, “New paradigms for understanding and step changes in treating active and chronic, persistent apicomplexan infections” (Scientific Reports, 2016):
In brackets after ≈: the same amount, converted by molar mass. Entries after “also recorded” stand apart in the source; their conditions may differ. Read-outs that look alike come from different tables or passages of the source.

Columns and labels:
[1] = test system: P. falciparum Dd2 parasite lines; assay: P. falciparum whole-cell SYBR Green EC50, Dd2 and cytochrome b mutant / scDHODH lines; format: cell-based; conditions: Plasmodium falciparum
Experimental: We used the following parasite line from the MR4 repository of the American Type Culture Collection (ATCC): Dd2 (MRA-156). Mutant Dd2 parasites harboring a G33A or G33V substitution in cytochrome b were as reported^S77. Dd2 parasites with a G131S mutation in cytochrome b and transgenic lines expressing a chromosomally integrated copy of the S. cerevisiae DHODH were utilized as previously described^S78. Parasites were cultured by standard methods in RPMI media supplemented with 5% human O^+ serum and 0.25% AlbuMAX® II (Life Technologies 11021–045)^S79.
Drug susceptibility was measured using the SYBR Green method^S75. Twelve point curves based on 2-fold dilutions of the test compound were carried out in triplicate each day and replicated on at least three different days. EC50 values were calculated using a nonlinear regression curve fit in Prism 6.0 for Mac (GraphPad Software, Inc.).

[2] = test system: P. falciparum Dd2 parasites; assay: Isobologram, modified fixed ratio drug combinations; format: cell-based, Plasmodium falciparum; conditions: for interaction in combination with MJM170: Dd2 parasites, synergy combined FIC < 1.0, additivity FIC = 1.0, antagonism FIC > 1.0; for FIC CYG: MJM170 + CYG; for FIC ATV: MJM170 + ATV
Experimental: Isobologram experiments were performed in similar fashion utilizing the modified fixed ratio methodology^S76. […] EC50 values were calculated as above, and FICs were calculated for each drug combination as described^S76. Synergy was defined as an FIC < 1.0, additivity as FIC = 1.0, and antagonism as FIC > 1.0.

[3] = test system: T. gondii tachyzoites (RH-YFP strain); assay: T. gondii tachyzoite assay (RH-YFP in HFF, fluorescence); format: cell-based; conditions: Toxoplasma gondii
Experimental: (§1) Vivo-PMO (Vivo porter linked to morpholinos) to knock down cytochrome b and an off-target PPMO (Vivo porter) were utilized at concentrations of 5 and 10 μM as previously described with both cultures of RH-YFP tachyzoites and EGS^S14. Morpholino sequence for cytochrome b/c knockdown is 5′ […] 3′, and for unrelated sequence, off target, is 5′ […]-[…] 3′.
Human foreskin fibroblasts (HFF) were cultured on a flat, clear-bottomed, black 96-well plate to 90% to 100% confluence. IMDM (1x, [+] glutamine, [+] 25 mM HEPES, [+] Phenol red, 10% FBS [gibco, Denmark]) was removed from each well and replaced with IMDM-C(1x, [+] glutamine, [+] 25 mM HEPES, [−] Phenol red, 10% FBS)[Gibco, Denmark]). Type I RH parasites expressing Yellow Fluorescent Protein (RH-YFP) were lysed from host cells by double passage through a 27-gauge needle. Parasites were counted and diluted to 32,000/mL in IMDM-C. Fibroblast cultures were infected with 3200 tachyzoites of the Type I RH-YFP strain and returned to incubator at 37 °C for 1–2 hours to allow for infection ^S12–15;S18,19;S25. […] The plates were read using a fluorimeter (Synergy H4 Hybrid Reader, BioTek) To ascertain the amount of yellow fluorescent protein, in relative fluorescence units (RFU), as a measure of parasite burden after treatment. […] Data was collected using Gen5 software and analyzed with Excel.

[4] = test system: T. gondii bradyzoites (EGS strain); assay: EGS strain bradyzoite (cyst) assay in HFF; format: cell-based, Toxoplasma gondii
Experimental: as §1
HFF cells were grown in IMDM (1x, [+] glutamine, [+] 25 mM HEPES, [+] Phenol red, 10% FBS, [Gibco, Denmark]) on removable, sterile glass disks in the bottom of a clear, flat-bottomed 24-well plate. Cultures were infected with 3 × 10^4 parasites (EGS strain) per well, in 0.5 mL media and plate was returned to incubator at 37 °C overnight. The following day, the media was removed and clear IMDM and compounds were added to making various concentrations of the drug, to a total volume of 0.5 mL. Two wells were filled with media only, as a control. Plates were returned to the 37 °C incubator for 72 hours.
Efficacy was determined following fixation. Staining was used to determine the numbers of cysts in cultures without and with treatment with the test compounds. Cells were fixed using 4% paraformaldehyde and stained with Fluorescein-labeled Dolichos Biflorus Agglutinin, DAPI, and anti-BAG1, and anti-SAG1. Disks were removed and mounted onto glass slides and visualized using microscopy (Nikon Tl7). Slides were also scanned using a CRi Pannoramic Scan Whole Slide Scanner and viewed using Pannoramic Viewer Software.

P. falciparum = P. falciparum in vitro assay (D6, TM91C235, W2, C2B strains); format: cell-based; conditions: Plasmodium falciparum
Experimental: D6 is a drug sensitive strain from Sierra Leone, C235 is a multi-drug resistant strain from Thailand, W2 is a chloroquine resistant strain from Thailand, and C2B has resistance to a variety of drugs including atovaquone. These assays were performed as described^S74.

[5] = HFF toxicity assay (WST-1); format: cell-based; conditions: human, HFF cells (confluent monolayer)
Experimental: Toxicity assays were conducted using WST-1 cell proliferation reagent (Roche) as described^S12–15;S18,19. HFF were grown on a flat, clear-bottomed, black 96-well plate. Confluent HFF were treated with inhibitory compounds at concentrations equal to those being tested in challenge assays. Compounds were diluted in IMDM-C, and 20 μl were added to each designated well, with triplicates for each condition. A gradient of 2 fold-decreasing concentrations of DMSO in clear IMDM-C was used as a control. The plate was incubated for 72 hours at 37 °C. 10 μl of WST-1 reagent (Roche) were added to each well and the cells were incubated for 30 to 60 minutes. Absorbance was read using a fluorometer at 420 nm. A higher degree of color change (and absorbance) indicated mitochondrial activity and cell viability.

[6] = test system: S. cerevisiae wild type parental AD1-9 strain; assay: S. cerevisiae growth inhibition (disk), wild type; format: cell-based, Saccharomyces cerevisiae; conditions: glycerol medium, 1mM, 100, 5 and 1 μM
Experimental: Three S. cerevisiae strains were used: M221Q and M221F cytochrome b mutants and wild type. They share the same nuclear genetic background deriving from AD1–9 (kindly given by M.Ghislain, UCL, Belgium). AD1–9 harbors multiple deletions in the ABC transporter genes that render the strain more sensitive to drugs than standard yeast strains^S65.
Protocol from^S68: Yeast strains were grown over 48 hours at 33 °C in liquid YPG medium [1% yeast extract, 2%(wt/vol) peptone, and 3%(vol/vol) (glycerol). Cultures were diluted to an OD600 of 0.05 and grown for 2 hrs. Cultures were then combined with YPG containing 6% melted agar for a total volume of 15–20 mL and poured onto OmniTray single-well rectangular plates that measured 86 mm by 128 mm (ThermoScientific) . Filter paper disks (7 mm diameter, […]) were placed onto the cooled agar plates. […] A single disk with DMSO on each plate was used as a control. Plates were incubated at 33 °C. Images were obtained after 4 days using GelDoc XR Imaging System (BioRad) and Quantity One software. Drug effect was assessed by the presence and size of a zone of inhibition around the disks.

T. gondii cysts = conditions: cited from earlier work
[7] = test system: yeast with a mutation in the Qi site; conditions: cited from earlier work
[8] = Human microsomal stability
[9] = Mouse microsomal stability
[10] = Aqueous kinetic solubility PBS pH 7.4

Question: Which EC50 ([1]; DD2, Dd2) does the source give for C[C@H]1[C@H](OC(=O)CCC(=O)O)O[C@@H]2O[C@@]3(C)CC[C@H]4[C@H](C)CC[C@@H]1[C@@]24OO3 [Artesunate] here?
Answer: The EC50 was 2.95 ± 0.94 nM.

Question: What about the EC50 ([1]; DD2, Dd2-attB) of the same compound?
Answer: The EC50 was 4.4 ± 2.3 nM.

Question: What about the EC50 ([1]; DD2, Dd2-scDHODH) of the same compound?
Answer: Its EC50 is 3.97 ± 2.3 nM.

Question: And the EC50 ([1]; DD2, Dd2: G33A)?
Answer: The EC50 was 2.53 ± 0.69 nM.

Question: And the EC50 ([1]; DD2, Dd2: G33V)?
Answer: The EC50 was 2.08 ± 1.4 nM.

Question: What about the EC50 ([1]; DD2, Dd2: G131S) of the same compound?
Answer: The EC50 was 3.38 ± 0.48 nM.

Question: With CC1(C)N=C(N)N=C(N)N1c1ccc(Cl)cc1 [cycloguanil] as the compound, how does the “interaction in combination with MJM170” value [2] read?
Answer: The value was “additive effect”.

Question: And the “FIC CYG” value ([2]; ratio 2:8)?
Answer: The value was 0.036 ± 0.01.

Question: And the “FIC CYG” value ([2]; ratio 4:6)?
Answer: Its value is 0.089 ± 0.03.

Question: What about the “FIC CYG” value ([2]; ratio 6:4) of the same compound?
Answer: The value was 0.2 ± 0.05.

Question: And the “FIC CYG” value ([2]; ratio 8:2)?
Answer: The value was 0.41 ± 0.003.

Question: For Cc1[nH]c2ccccc2c(=O)c1-c1ccc(Oc2ccc(OC(F)(F)F)cc2)cc1 [ELQ 271], which IC50 [3] is on record?
Answer: Its IC50 is 30 nM.

Question: What about the “effect on EGS bradyzoites in cysts in vitro” value [4] of the same compound?
Answer: Its value is “inhibited EGS in vitro”.

Question: What about the “effect on EGS cysts in vitro” value ([4]; 10 μM) of the same compound?
Answer: Its value is “reduce the EGS cysts in vitro”.

Question: What about the IC50 ([4]; Toxoplasma gondii, EGS strain cysts in HFF) of the same compound?
Answer: The IC50 was 1000 nM.

Question: And the IC50 (P. falciparum; C2B strain, multi-drug resistant, pronounced resistance to atovaquone)?
Answer: The IC50 was 130 nM.

Question: What about the IC50 (P. falciparum; D6 strain (Sierra Leone), drug sensitive) of the same compound?
Answer: The IC50 was 30 nM.

Question: And the IC50 (P. falciparum; TM91C235 strain (Thailand), multi-drug resistant)?
Answer: Its IC50 is 90 nM.

Question: And the IC50 (P. falciparum; W2 strain (Thailand), chloroquine resistant)?
Answer: Its IC50 is 100 nM.

Question: What about the CC50 at 72 h [5] of the same compound?
Answer: The CC50 at 72 h was 20000 nM.

Question: And the “growth inhibition of wild type yeast” value [6]?
Answer: Its value is “effective”.

Question: And the “effect on brain cyst numbers in mice” value (T. gondii cysts; mouse model, listed as ELQ271)?
Answer: Its value is “partially reduce cyst numbers in mice”.

Question: And the “effect on brain cyst numbers in mice” value (T. gondii cysts; mouse model; listed as ELQ) 271)?
Answer: The value was “reduce, but not eliminate, brain cyst numbers in mice”.

Question: What about the “activity against yeast with a mutation in the Qi site” value [7] of the same compound?
Answer: The value was “ineffective”.

Question: And the solubility (FaSSIF solubility pH 6.5)?
Answer: The solubility was 3.4 µM (≈ 1.4 µg/mL).

Question: What about the half-life ([8]; human, human microsomes) of the same compound?
Answer: The half-life was 2.87 h.

Question: And the human microsomal stability ([8]; rounded)?
Answer: Its human microsomal stability is 172 min.

Question: And the mouse microsomal stability [9]?
Answer: Its mouse microsomal stability is greater than 200 min.

Question: And the half-life ([9]; mouse, mouse microsomes)?
Answer: Its half-life is greater than 3.33 h.

Question: And the solubility kinetic [10]?
Answer: The solubility kinetic was 0.15 µM (≈ 0.0617 µg/mL).

Question: Which results are given for O=C1C(O)=C([C@H]2CC[C@H](c3ccc(Cl)cc3)CC2)C(=O)c2ccccc21 [Atovaquone, atovaquone]?
Answer: EC50 ([1]; DD2, Dd2): 0.461 ± 0.14 nM; EC50 ([1]; DD2, Dd2-attB): 1.11 ± 0.27 nM; EC50 ([1]; DD2, Dd2-scDHODH): > 50 nM; EC50 ([1]; DD2, Dd2: G33A): 0.365 ± 0.053 nM; EC50 ([1]; DD2, Dd2: G33V): 3.85 ± 7.1 nM; EC50 ([1]; DD2, Dd2: G131S): 0.479 ± 0.17 nM; interaction in combination with MJM170 [2]: Slight synergy; also recorded: modest synergy; interaction in combination with MJM170 ([2]; listed as atovoquone): modestly synergistic; FIC ATV ([2]; ratio 2:8): 0.82 ± 0.05; FIC ATV ([2]; ratio 4:6): 0.72 ± 0.1; FIC ATV ([2]; ratio 6:4): 0.52 ± 0.1; FIC ATV ([2]; ratio 8:2): 0.35 ± 0.06; effect on cyst burden in mice (T. gondii cysts): partially, and transiently, limits cyst burden in mice
